Measurements as given in patent US20240016781A1, “TREATMENT OF KRAS MUTANT CANCERS” (MEI Pharma, Inc., priority 2020, published 2024).
Like-named read-outs stand apart in the source and are kept apart here.

Tests used:
Assay in all cases: 72-hour CellTiter-Glo 2.0 growth inhibition screen (single agent, 9x9 combination dose matrix);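 on Best CI Level: inhibition effect level at which the best CI was calculated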
Type in all cases: cell-based
[1] = system: HCC1171; details: for EC50 / Response Area / Emax / GI50: HCC1171, Lung; for GI50: growth inhibition (GI) curve; for Best CI Level: unit assumed;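 on Best CI Level: inhibition effect level at which the best CI was calculated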
[2] = system: HCC44; details: for Response Area / EC50 / IC50 / Emax / GI50: HCC44, Lung; for EC50 / IC50 / Emax / GI50: Homo sapiens; for EC50: HCC44, 72 h; for Best CI Level: unit assumed;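 on Best CI Level: inhibition effect level at which the best CI was calculated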
[3] = system: HPAF-II; details: for Response Area / EC50 / IC50 / Emax / GI50: HPAF-II, Pancreas; for EC50 / IC50 / Emax / GI50: Homo sapiens; for Best CI Level: unit assumed;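 on Best CI Level: inhibition effect level at which the best CI was calculated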
[4] = system: LS-513; details: for EC50 / IC50 / Emax / GI50: Homo sapiens; for EC50: LS-513, 72 h; for EC50 / IC50 / Emax / GI50 / Response Area: LS-513, Colorectal;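 on Best CI Level: inhibition effect level at which the best CI was calculated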
[5] = system: SW48 KRAS (G12C/+); details: for EC50 / IC50 / Emax / GI50: Homo sapiens; for EC50: SW48, 72 h, read-out: EC50; for EC50 / IC50 / Emax / GI50 / Response Area: Colorectal;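 on Best CI Level: inhibition effect level at which the best CI was calculated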
[6] = HCC1171 (KRAS G12C), enhancer + MEI-522 (Voruciclib), 72 h;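 on Best CI Level: inhibition effect level at which the best CI was calculated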
[7] = Additional Single Agent Responses (inhibition, % I), 72 h
[8] = Additional Single Agent Responses, 72 h, read-out: Max Response (% I)
[9] = growth inhibition (GI), AUC, single agent, 72 h
[10] = growth inhibition (GI), single agent, 72 h, read-out: Max Response (% GI)
[11] = enhancer combined with MEI-522 (Voruciclib), HCC1171 (Lung), 72 hours, inhibition data
[12] = HCC44 (KRAS G12C), enhancer + MEI-522 (Voruciclib), 72 h;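 on Best CI Level: inhibition effect level at which the best CI was calculated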
[13] = growth inhibition (GI) curve, single agent, 72 h
[14] = enhancer combined with MEI-522 (Voruciclib), HCC44 (Lung), 72 hours, inhibition data
[15] = HPAF-II (KRAS G12D), enhancer + MEI-522 (Voruciclib), 72 h;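 on Best CI Level: inhibition effect level at which the best CI was calculated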
[16] = 72 h, Additional Single Agent Responses (inhibition, % I)
[17] = 72 h, growth inhibition (GI) curve, single agent
[18] = enhancer combined with MEI-522 (Voruciclib), HPAF-II (Pancreas), 72 hours, inhibition data
[19] = LS-513 (KRAS G12D), enhancer + MEI-522 (Voruciclib), 72 h;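 on Best CI Level: inhibition effect level at which the best CI was calculated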
[20] = enhancer combined with MEI-522 (Voruciclib), LS-513 (Colorectal), 72 hours, inhibition data
[21] = SW48 KRAS (G12C/+), Additional Single Agent Responses (inhibition, % I), 72 h
[22] = SW48 KRAS (G12C/+), growth inhibition (GI) curve, single agent, 72 h
[23] = SW48 KRAS (G12C/+), Additional Single Agent Responses, 72 h, read-out: Max Response (% I)
[24] = SW48 KRAS (G12C/+), growth inhibition (GI), single agent, 72 h, read-out: Max Response (% GI)
[25] = SW48 KRAS (G12C/+), growth inhibition (GI), AUC, single agent, 72 h
[26] = SW48 KRAS (G12C/+), enhancer + MEI-522 (Voruciclib), 72 h
[27] = enhancer combined with MEI-522 (Voruciclib), SW48 KRAS (G12C/+) (Colorectal), 72 hours, inhibition data

## CN1CCN(c2ccc(OC(F)(F)F)c(Nc3ncc4c(n3)-c3c(c(C(N)=O)nn3CCO)CC4)c2)CC1 [Onvansertib]
[1]; [6]
  Best CI: 1.01
  Bliss Volume: −2.83
  HSA volume: −2.66
  Loewe Volume: −1.72
  Synergy Score: 1.86
[1]; [7]
  EC50: 15.5 nM
  Response Area: 1.75
[1]; [8]
  Emax: 46%
[1]; single agent, 72 h
  GI50: 33 nM
[1]; [9]
  Response Area: 3.02
[1]; [10]
  Emax: 81%
[1]; [11]
  Best CI: 0.62
  Bliss Volume: −3.14
  HSA volume: −1.61
  Loewe Volume: −1.03
  Synergy Score: 0.59
  Best CI Level: 50%
[2]; [12]
  Best CI: 0.65
  Bliss Volume: 4.26
  HSA volume: 1.33
  Loewe Volume: 0.16
  Synergy Score: 3.96
[2]; [7]
  Response Area: 3.83
  EC50: 18.5 nM
  IC50: 25.3 nM
[2]; [9]
  Response Area: 5.16
[2]; [13]
  EC50: 22 nM
  GI50: 18.7 nM
[2]; [8]
  Emax: 81%
[2]; [10]
  Emax: 112%
[2]; [14]
  Best CI: 0.80
  Bliss Volume: −0.85
  HSA volume: 0.68
  Loewe Volume: −0.34
  Synergy Score: 0.67
  Best CI Level: 20%
[3]; [15]
  Best CI: 0.70
  Bliss Volume: −0.18
  HSA volume: 0.48
  Loewe Volume: −0.22
  Synergy Score: 1.29
[3]; [7]
  Response Area: 2.97
  IC50: 35.9 nM
[3]; [9]
  Response Area: 3.98
[3]; [16]
  EC50: 20.9 nM
[3]; [17]
  EC50: 21 nM
[3]; [8]
  Emax: 65%
[3]; [13]
  GI50: 24.2 nM
[3]; [10]
  Emax: 87%
[3]; [18]
  Best CI: 0.85
  Bliss Volume: −1.20
  HSA volume: 0.37
  Loewe Volume: −0.12
  Synergy Score: 0.74
  Best CI Level: 20%
[4]; [7]
  EC50: 49.4 nM
  IC50: 61.6 nM
  Response Area: 3.29
[4]; [13]
  EC50: 49.4 nM
  GI50: 51.7 nM
[4]; [8]
  Emax: 79%
[4]; [10]
  Emax: 97%
[4]; [19]
  Best CI: 0.96
  Bliss Volume: 0.53
  HSA volume: −0.64
  Loewe Volume: −1.49
  Synergy Score: 2.51
[4]; [9]
  Response Area: 4.03
[4]; [20]
  Best CI: 0.90
  Best CI Level: 20
  Bliss Volume: −2.22
  HSA volume: −0.87
  Loewe Volume: −1.32
  Synergy Score: 0.70
[5]; [21]
  EC50: 15.5 nM
  IC50: 16.3 nM
  Response Area: 4.14
[5]; [22]
  EC50: 17.1 nM
  GI50: 15.9 nM
[5]; [23]
  Emax: 93%
[5]; [24]
  Emax: 159%
[5]; [25]
  Response Area: 5.77
[5]; [26]
  Best CI: 0.86
  Bliss Volume: 2.74
  HSA volume: −2.16
  Loewe Volume: −0.91
  Synergy Score: 5.28
[5]; [27]
  Best CI: 0.67
  Best CI Level: 20
  Bliss Volume: −0.08
  HSA volume: 0.19
  Loewe Volume: −0.06
  Synergy Score: 1.03

## CC[C@@H]1C(=O)N(C)c2cnc(Nc3ccc(C(=O)N[C@H]4CC[C@H](N5CCN(CC6CC6)CC5)CC4)cc3OC)nc2N1C(C)C [Volasertib]
[1]; [6]
  Best CI: 0.95
  Bliss Volume: −2.15
  HSA volume: −1.49
  Loewe Volume: −1.27
  Synergy Score: 2.07
[1]; [7]
  EC50: 4.7 nM
  Response Area: 1.99
[1]; [8]
  Emax: 45%
[1]; single agent, 72 h
  GI50: 5.3 nM
[1]; [9]
  Response Area: 3.40
[1]; [10]
  Emax: 79%
[1]; [11]
  Best CI: 0.79
  Bliss Volume: −3.18
  HSA volume: −0.81
  Loewe Volume: −0.71
  Synergy Score: 0.73
  Best CI Level: 50%
[2]; [12]
  Best CI: 0.55
  Bliss Volume: 6.88
  HSA volume: 2.51
  Loewe Volume: 0.65
  Synergy Score: 6.97
[2]; [7]
  Response Area: 4.07
  EC50: 4.2 nM
  IC50: 6.3 nM
[2]; [9]
  Response Area: 5.39
[2]; [13]
  EC50: 4.5 nM
  GI50: 4.4 nM
[2]; [8]
  Emax: 81%
[2]; [10]
  Emax: 113%
[2]; [14]
  Best CI: 0.83
  Bliss Volume: −1.88
  HSA volume: 0.12
  Loewe Volume: −0.92
  Synergy Score: 1.13
  Best CI Level: 80%
[3]; [15]
  Best CI: 0.66
  Bliss Volume: −0.85
  HSA volume: 0.04
  Loewe Volume: −0.80
  Synergy Score: 2.64
[3]; [7]
  Response Area: 3.45
  IC50: 6.2 nM
[3]; [9]
  Response Area: 4.65
[3]; [16]
  EC50: 3.9 nM
[3]; [17]
  EC50: 3.9 nM
[3]; [8]
  Emax: 71%
[3]; [13]
  GI50: 4.4 nM
[3]; [10]
  Emax: 95%
[3]; [18]
  Best CI: 0.52
  Bliss Volume: −2.61
  HSA volume: −0.36
  Loewe Volume: −0.96
  Synergy Score: 0.98
  Best CI Level: 70%
[4]; [7]
  EC50: 18.6 nM
  IC50: 23.9 nM
  Response Area: 3.44
[4]; [13]
  EC50: 18.5 nM
  GI50: 20 nM
[4]; [8]
  Emax: 74%
[4]; [10]
  Emax: 91%
[4]; [19]
  Best CI: 0.60
  Bliss Volume: 3.16
  HSA volume: 1.53
  Loewe Volume: 1.21
  Synergy Score: 5.33
[4]; [9]
  Response Area: 4.22
[4]; [20]
  Best CI: 0.62
  Best CI Level: 80
  Bliss Volume: −1.28
  HSA volume: 0.04
  Loewe Volume: 0.06
  Synergy Score: 1.44
[5]; [21]
  EC50: 4.3 nM
  IC50: 4.6 nM
  Response Area: 3.98
[5]; [22]
  EC50: 4.4 nM
  GI50: 4.4 nM
[5]; [23]
  Emax: 90%
[5]; [24]
  Emax: 141%
[5]; [25]
  Response Area: 5.48
[5]; [26]
  Best CI: 0.08
  Bliss Volume: 5.42
  HSA volume: 1.24
  Loewe Volume: 2.81
  Synergy Score: 11.77
[5]; [27]
  Best CI: 0.13
  Best CI Level: 80
  Bliss Volume: −0.04
  HSA volume: 0.65
  Loewe Volume: 1.39
  Synergy Score: 3.33
